Source: article PMC10269775, “Penicillin-Binding Protein Occupancy Dataset for 18 β-Lactams and 4 β-Lactamase Inhibitors in Neisseria gonorrhoeae” (Microbiology Spectrum, 2023)
Values after ≈ are worked out from the molar mass of the structure shown. Like-named read-outs stand apart in the source and are kept apart here.

Tests used:
[1] = tested on: N. gonorrhoeae ATCC 49226; assay: MIC, CLSI broth microdilution; assay type: cell-based, Neisseria gonorrhoeae; conditions: for MIC: Neisseria gonorrhoeae, ATCC49226, strain ATCC 49226; for MIC increase for strain ATCC 49226: ATCC 49226 versus ATCC 19424
PBP1 [2] = target: T1, PBP1 (Neisseria gonorrhoeae, UniProt O05131, A375T/F666S); assay: PBP-binding assay (Bocillin FL) in isolated membrane preparations; set-up: species or system Neisseria gonorrhoeae ATCC 49226
T1 construct: endogenous in cells; host or cells: N. gonorrhoeae ATCC 49226, isolated membrane preparation
From the text: (§1) Bacterial membranes were collected by ultracentrifugation.

[3] = tested on: N. gonorrhoeae ATCC 19424; assay: MIC, CLSI broth microdilution; assay type: cell-based; conditions: Neisseria gonorrhoeae, ATCC19424, strain ATCC 19424
PBP2 [4] = target: T2, PBP2 (Neisseria gonorrhoeae, UniProt P08149, H541N); assay: PBP-binding assay (Bocillin FL) in isolated membrane preparations; set-up: species or system Neisseria gonorrhoeae ATCC 19424; conditions: IC50 PBP2, strain ATCC 19424; membrane preparation, 30 min drug then Bocillin FL
T2 construct: endogenous in cells; host or cells: N. gonorrhoeae ATCC 19424, isolated membrane preparation

PBP2 [5] = target: T3, PBP2 (Neisseria gonorrhoeae, UniProt P08149, A510V/A516G/A574V/F504L/H541N/I556V/I566V/K555Q/P552V); assay: biochemical; assay type: binding, Neisseria gonorrhoeae ATCC 49226
T3 construct: endogenous in cells; host or cells: N. gonorrhoeae ATCC 49226, isolated membrane preparation

PBP1, PBP2 and PBP3 [6] = target: PBP1, PBP2 and PBP3 (Neisseria gonorrhoeae, UniProt P08149, H541N); assay type: binding, Neisseria gonorrhoeae ATCC 19424; conditions: read-out: min. IC50 (minimum observed IC50 value); strain ATCC 19424
PBP1 [7] = target: T4, PBP1 (Neisseria gonorrhoeae, UniProt O05131); assay: PBP-binding assay (Bocillin FL) in isolated membrane preparations; conditions: strain ATCC 19424; membrane preparation, 30 min drug then Bocillin FL; read-out: IC50 PBP1 (converted)
T4 construct: endogenous in cells; host or cells: N. gonorrhoeae ATCC 19424, isolated membrane preparation
From the text: as §1

PBP1, PBP2 and PBP3 [8] = target: PBP1, PBP2 and PBP3 (Neisseria gonorrhoeae, UniProt P08149, A510V/A516G/A574V/F504L/H541N/I556V/I566V/K555Q/P552V); assay type: binding, Neisseria gonorrhoeae ATCC 49226; conditions: read-out: min. IC50 (minimum observed IC50 value); strain ATCC 49226
PBP2 [9] = target: PBP2 (Neisseria gonorrhoeae, UniProt P08149); conditions: read-out: IC50 for PBP2; across both strains ATCC 19424 and ATCC 49226
PBP3 [10] = target: T5, PBP3 (Neisseria gonorrhoeae, UniProt Q5FAB9); conditions: read-out: IC50 PBP3; strain ATCC 19424; membrane preparation, 30 min drug then Bocillin FL
T5 sequence (Q5FAB9 22-469): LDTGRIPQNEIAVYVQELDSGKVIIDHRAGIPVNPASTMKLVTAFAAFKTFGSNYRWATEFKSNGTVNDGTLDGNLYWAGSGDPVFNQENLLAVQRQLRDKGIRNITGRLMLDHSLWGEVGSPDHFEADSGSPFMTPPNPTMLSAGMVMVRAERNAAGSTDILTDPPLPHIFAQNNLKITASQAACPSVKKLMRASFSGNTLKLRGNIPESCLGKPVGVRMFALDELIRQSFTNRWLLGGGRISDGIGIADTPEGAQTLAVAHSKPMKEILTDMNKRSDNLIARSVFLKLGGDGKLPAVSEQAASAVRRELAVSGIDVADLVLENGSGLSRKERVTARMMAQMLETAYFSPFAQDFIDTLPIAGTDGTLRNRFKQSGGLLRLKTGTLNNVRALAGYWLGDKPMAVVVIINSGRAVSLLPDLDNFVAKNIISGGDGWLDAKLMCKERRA

PBP3 [11] = target: T5, PBP3; conditions: read-out: IC50 PBP3; strain ATCC 49226; membrane preparation, 30 min drug then Bocillin FL
[12] = tested on: N. gonorrhoeae ATCC 19424 and ATCC 49226; assay: MIC, summary over both strains; assay type: cell-based, Neisseria gonorrhoeae; conditions: compared with imipenem
[13] = IC50 PBP1, strain ATCC 49226, membrane preparation, 30 min drug then Bocillin FL
[14] = IC50 PBP2, strain ATCC 49226, membrane preparation, 30 min drug then Bocillin FL

SMILES | MIC ([1]; read-out: MIC) [µg/mL] | MIC ([1]; read-out: MIC (Table S1)) [µg/mL] | IC50 (PBP1 [2]; IC50 PBP1 (Table S1), strain ATCC 49226) [nM] | MIC ([3]; read-out: MIC) [µg/mL] | MIC ([3]; read-out: MIC (Table S1)) [µg/mL] | IC50 (PBP2 [4]) [nM] | IC50 (PBP2 [5]; IC50 PBP2 (Table S1), strain ATCC 49226) [nM] | IC50 (PBP1, PBP2 and PBP3 [6]) [nM] | IC50 (PBP1 [7]) [nM] | IC50 (PBP1, PBP2 and PBP3 [8]) [nM] | IC50 (PBP1 [2]; [13]) [nM] | IC50 (PBP2 [9]) [nM] | IC50 (PBP2 [5]; [14]) [nM] | IC50 (PBP3 [10]) [nM] | IC50 (PBP3 [11]) [nM] | MIC increase for strain ATCC 49226 [1] [fold] | times more active [12] [times]
CC1(C)S[C@@H]2[C@H](NC(=O)C(C(=O)O)c3ccccc3)C(=O)N2[C@H]1C(=O)O (some centres unmarked) [CAR, carbenicillin] | 0.5 (≈ 1.32 µM) | 0.5 (≈ 1.32 µM) | > 5290 | 0.032 (≈ 0.0846 µM) | 0.032 (≈ 0.0846 µM) | 344 | > 5290 | 344 | > 5290 | – | – | – | – | – | – | – | –
CC(C)(O/N=C(\C(=O)N[C@@H]1C(=O)N2C(C(=O)[O-])=C(C[n+]3ccccc3)CS[C@H]12)c1csc(N)n1)C(=O)O [CAZ, ceftazidime] | 0.032 (≈ 0.0585 µM) | 0.032 (≈ 0.0585 µM) | – | 0.016 (≈ 0.0293 µM) | 0.016 (≈ 0.0293 µM) | 18.3 | – | 18.3 | > 3660 | 18.3 | > 3660 | 18.3 | 18.3 | > 3660 | > 3660 | – | –
C=CC1=C(C(=O)O)N2C(=O)[C@@H](NC(=O)/C(=N\OCC(=O)O)c3csc(N)n3)[C@H]2SC1 [CFM, cefixime] | 0.016 (≈ 0.0353 µM) | 0.016 (≈ 0.0353 µM) | – | 0.004 (≈ 0.00882 µM) | 0.004 (≈ 0.00882 µM) | 22.1 | – | 22.1 | 2030 | 44.1 | > 4410 | 22.1 | 44.1 | > 4410 | > 4410 | 4 | –
CCO/N=C(\C(=O)N[C@@H]1C(=O)N2C(C(=O)[O-])=C(Sc3nc(-c4cc[n+](C)cc4)cs3)CS[C@H]12)c1nsc(N)n1 [CPT, ceftaroline] | 0.5 (≈ 0.827 µM) | 0.5 (≈ 0.827 µM) | – | 0.032 (≈ 0.0529 µM) | 0.032 (≈ 0.0529 µM) | 248 | – | 248 | > 3310 | 347 | > 3310 | – | 347 | 3140 | 2130 | 16 | –
CO/N=C(\C(=O)N[C@@H]1C(=O)N2C(C(=O)O)=C(CSc3nc(=O)c(=O)[nH]n3C)CS[C@H]12)c1csc(N)n1 [CRO, ceftriaxone] | 0.002 (≈ 0.00361 µM) | 0.008 (≈ 0.0144 µM) | – | 0.004 (≈ 0.00721 µM) | 0.004 (≈ 0.00721 µM) | – | – | – | 3370 | – | 3430 | – | – | – | – | – | –
CO/N=C(\C(=O)N[C@@H]1C(=O)N2C(C(=O)O)=C(COC(C)=O)CS[C@H]12)c1csc(N)n1 [CTX, cefotaxime] | 0.008 (≈ 0.0176 µM) | 0.008 (≈ 0.0176 µM) | – | 0.004 (≈ 0.00878 µM) | 0.004 (≈ 0.00878 µM) | 22 | – | 22 | 4060 | 22 | > 4390 | 22 | 22 | 3140 | 2240 | – | –
C[C@@H](O)[C@H]1C(=O)N2C(C(=O)O)=C(S[C@@H]3CN[C@H](C(=O)Nc4cccc(C(=O)O)c4)C3)[C@H](C)[C@H]12 [ETP, ertapenem] | 0.008 (≈ 0.0168 µM) | 0.008 (≈ 0.0168 µM) | – | 0.004 (≈ 0.00841 µM) | 0.004 (≈ 0.00841 µM) | 84.1 | – | – | 1010 | – | 1200 | – | 21 | – | – | – | 8
CO/N=C(\C(=O)N[C@@H]1C(=O)N2C(C(=O)[O-])=C(C[N+]3(C)CCCC3)CS[C@H]12)c1csc(N)n1 [FEP, cefepime] | 0.032 (≈ 0.0666 µM) | 0.032 (≈ 0.0666 µM) | – | 0.008 (≈ 0.0166 µM) | 0.008 (≈ 0.0166 µM) | – | – | – | > 4160 | – | > 4160 | – | – | – | – | – | –
